Results from ChEMBL document CHEMBL4627399, “Synthesis and Structure-Activity Relationships of 5'-Aryl-14-alkoxypyridomorphinans: Identification of a μ Opioid Receptor Agonist/δ Opioid Receptor Antagonist Ligand with Systemic Antinociceptive Activity and Diminished Opioid Side Effects” (J Med Chem, 2020).
Active and inactive are the calls of the source. The calls are words filed in the database; no cut-off is given here.

Legend:
Mu-type opioid receptor [1] = molecular target: T1, Mu-type opioid receptor (Homo sapiens, UniProt P35372); test: biochemical; format: cell-based, CHO
[2] = molecular target: T2, Delta-type opioid receptor (Homo sapiens, UniProt P41143); test: Displacement of [3H]-diprenorphine from human delta opioid receptor expressed in CHO cell membranes incubated for 1 hr by competition radioligand binding assay
[3] = molecular target: T3, Kappa-type opioid receptor (Homo sapiens, UniProt P41145); test: Displacement of [3H]-diprenorphine from human kappa opioid receptor expressed in CHO cell membranes incubated for 1 hr by competition radioligand binding assay
Mu-type opioid receptor [4] = molecular target: T1, Mu-type opioid receptor; test: Agonist activity at human mu opioid receptor expressed in CHO cell membranes assessed as stimulation of [35S]GTPgammaS binding incubated for 1 hr relative to DAMGO; format: functional
[5] = molecular target: T2, Delta-type opioid receptor; test: Antagonist activity at human delta opioid receptor expressed in CHO cell membranes assessed as reduction in SNC80-induced [35S]GTPgammaS binding preincubated for 5 mins followed by SNC80 addition and measured after 1 hr; format: functional
[6] = Stability in human liver microsomes at 1 uM measured up to 60 mins by LC-MS/MS analysis; format: ADME, Microsome; details: 1 h
Mu-type opioid receptor [7] = molecular target: T1, Mu-type opioid receptor; details: cho
[8] = molecular target: T3, Kappa-type opioid receptor; test: Agonist activity at human kappa opioid receptor expressed in CHO cell membranes incubated for 1 hr by [35S]GTPgammaS binding assay; format: functional; details: cho
[9] = molecular target: T3, Kappa-type opioid receptor; test: Agonist activity at human kappa opioid receptor expressed in CHO cell membranes assessed as stimulation of [35S]GTPgammaS binding incubated for 1 hr relative to […]; format: functional
Mus musculus = test: Antinociceptive activity in iv dosed CD-1 mouse measured after 15 mins by warm water tail-flick assay; format: functional, organism-based
Mu-type opioid receptor [10] = molecular target: T1, Mu-type opioid receptor; test: biochemical

| Structure (SMILES) | Ki (Mu-type opioid receptor [1]) [nM] | Ki [2] [nM] | Ki [3] [nM] | Emax (Mu-type opioid receptor [4]) | IC50 [5] [nM] | Stability [6] | EC50 (Mu-type opioid receptor [7]) | EC50 [8] | Emax [9] | Activity (Mus musculus) | EC50 (Mu-type opioid receptor [10]) [nM] |
| --- | --- | --- | --- | --- | --- | --- | --- | --- | --- | --- | --- |
| Oc1ccc2c3c1O[C@H]1c4ncc(-c5ccc(Cl)cc5)cc4C[C@@]4(OCc5ccc6ccccc6n5)[C@@H](C2)N(CC2CC2)CC[C@]314 | 799 | 32.5 | 31 | inactive | 10.8 | Stable | Not Active |  |  |  |  |
| Cc1nnc(-c2cnc3c(c2)C[C@@]2(OCCCc4ccccc4)[C@H]4Cc5ccc(O)c6c5[C@@]2(CCN4CC2CC2)[C@H]3O6)o1 | 3.18 | 8.12 | 14.8 |  | < 0.17 | Stable |  | Not Active | inactive | Dose-dependent effect | 17.5 |
| Cn1cc(-c2cnc3c(c2)C[C@@]2(OCCCc4ccccc4)[C@H]4Cc5ccc(O)c6c5[C@@]2(CCN4CC2CC2)[C@H]3O6)cn1 | 3.79 | 7.96 | 8.4 |  | 19.6 | Stable |  | Not Active | inactive |  | 659 |
| COc1ccccc1-c1cnc2c(c1)C[C@@]1(OCCCc3ccccc3)[C@H]3Cc4ccc(O)c5c4[C@@]1(CCN3CC1CC1)[C@H]2O5 | 61.9 | 29.7 | 126 |  | 0.79 | Stable |  | Not Active | inactive |  | 7.18 |
| Oc1ccc2c3c1O[C@H]1c4ncc(-c5cccnc5)cc4C[C@@]4(OCCCc5ccccc5)[C@@H](C2)N(CC2CC2)CC[C@]314 | 82.7 | 30.6 | 27.8 |  | 0.67 | Stable |  | Not Active | inactive |  | > 3330 |
| Oc1ccc2c3c1O[C@H]1c4ncc(-c5cnccn5)cc4C[C@@]4(OCCCc5ccccc5)[C@@H](C2)N(CC2CC2)CC[C@]314 | 88.7 | 40.1 | 19.8 |  | 1.27 | Stable |  | Not Active | inactive |  | > 3330 |
| Oc1ccc2c3c1O[C@H]1c4ncc(-c5ccc(Cl)cc5)cc4C[C@@]4(OCCOc5ccccc5)[C@@H](C2)N(CC2CC2)CC[C@]314 | 819 | 172 | 21.3 | inactive | 25.4 | Stable | Not Active |  |  |  |  |
| Oc1ccc2c3c1O[C@H]1c4ncc(-c5ccc(Cl)cc5)cc4C[C@@]4(OCCCc5ccncc5)[C@@H](C2)N(CC2CC2)CC[C@]314 | 5.37 | 5.24 | 10.3 | inactive | 4.69 | Stable | Not Active |  |  |  |  |
| Oc1ccc2c3c1O[C@H]1c4ncc(-c5cncnc5)cc4C[C@@]4(OCCCc5ccccc5)[C@@H](C2)N(CC2CC2)CC[C@]314 | 47.9 | 5.18 | 24.8 |  | 0.87 | Stable |  | Not Active | inactive |  | > 3330 |
| COc1cc(-c2cnc3c(c2)C[C@@]2(OCCCc4ccccc4)[C@H]4Cc5ccc(O)c6c5[C@@]2(CCN4CC2CC2)[C@H]3O6)ccn1 | 10.7 | 3.5 | 6.62 |  | 0.7 | Stable |  | Not Active | inactive |  | 2.69 |
| Oc1ccc2c3c1O[C@H]1c4ncc(-c5ccccc5)cc4C[C@@]4(OCCCc5ccncc5)[C@@H](C2)N(CC2CC2)CC[C@]314 | 3.82 | 29.2 | 21.9 | inactive | < 0.51 | Stable | Not Active |  |  |  |  |
